Measurements reported in article PMC6117091, “The C. difficile clnRAB operon initiates adaptations to the host environment in response to LL-37” (PLoS Pathogens, 2018).

Key:
[1] = system: C. difficile clnR Tn::clnRAB; assay: Growth in minimal medium with LL-37, maximum doubling time; conditions: mean ± SD, n ≥ 3
[2] = system: clnR expression in C. difficile 630Δerm; assay: clnR expression by qRT-PCR after exposure to antimicrobials (induction specificity); conditions: 2 μg/ml, BHIS; normalized to 630Δerm in BHIS without antimicrobials; mean of three replicates ± SEM

CC[C@H](C)[C@H](NC(=O)[C@H](CCCCN)NC(=O)[C@H](CCC(=O)O)NC(=O)[C@H](CCCCN)NC(=O)[C@H](CO)NC(=O)[C@H](CCCCN)NC(=O)[C@H](CCCNC(=N)N)NC(=O)[C@H](Cc1ccccc1)NC(=O)[C@H](Cc1ccccc1)NC(=O)[C@H](CC(=O)O)NC(=O)CNC(=O)[C@H](CC(C)C)NC(=O)[C@@H](N)CC(C)C)C(=O)NCC(=O)N[C@@H](CCCCN)C(=O)N[C@@H](CCC(=O)O)C(=O)N[C@@H](Cc1ccccc1)C(=O)N[C@@H](CCCCN)C(=O)N[C@@H](CCCNC(=N)N)C(=O)N[C@H](C(=O)N[C@H](C(=O)N[C@@H](CCC(N)=O)C(=O)N[C@@H](CCCNC(=N)N)C(=O)N[C@H](C(=O)N[C@@H](CCCCN)C(=O)N[C@@H](CC(=O)O)C(=O)N[C@@H](Cc1ccccc1)C(=O)N[C@@H](CC(C)C)C(=O)N[C@@H](CCCNC(=N)N)C(=O)N[C@@H](CC(N)=O)C(=O)N[C@@H](CC(C)C)C(=O)N[C@H](C(=O)N1CCC[C@H]1C(=O)N[C@@H](CCCNC(=N)N)C(=O)N[C@H](C(=O)N[C@@H](CCC(=O)O)C(=O)N[C@@H](CO)C(=O)O)[C@@H](C)O)C(C)C)[C@@H](C)CC)C(C)C)[C@@H](C)CC [LL-37] showed a Doubling time ([1]; 0.5 µg/ml LL-37, MM + 30 mM NAG) of 111.1 ± 16.5 min, a Doubling time ([1]; 0.5 µg/ml LL-37, MM + 30 mM ethanolamine) of 93.4 ± 12.2 min and a Doubling time ([1]; 0.5 µg/ml LL-37, MM + 30 mM fructose) of 80.4 ± 7.4 min. The Doubling time ([1]; 0.5 µg/ml LL-37, MM + 30 mM glucose) was 76.4 ± 5.4 min, the Doubling time ([1]; 0.5 µg/ml LL-37, MM + 30 mM mannitol) was 75.6 ± 5.3 min and the Doubling time ([1]; 0.5 µg/ml LL-37, MM + 30 mM mannose) was 80.4 ± 8.3 min. For the same compound, the Doubling time ([1]; 0.5 µg/ml LL-37, base MM, § p < 0.05 vs no LL-37) was 84.8 ± 4.5 min and the “Relative clnR expression” value [2] was 530.1 ±110.5.
